From ChEMBL document CHEMBL3351745, “Synthesis and in vitro evaluation of radioiodinated indolequinones targeting NAD(P)H: quinone oxidoreductase 1 for internal radiation therapy” (Bioorg Med Chem, 2014)

How the values were obtained:
HT-29 [1] = test: Drug level in human HT-29 cells treated with 18.5 kBq [125I]-3-([4-Iodophenoxy]methyl)-5-methoxy-1,2-dimethyl-1Hindole-4,7-dione after 60 mins by reversed phase TLC analysis; assay type: ADME, cell-based; settings: ht-29, 1 h
HT-29 [2] = test: Drug level in human HT-29 cells treated with 18.5 kBq [125I]-3-([3-Iodophenoxy]methyl)-5-methoxy-1,2-dimethyl-1Hindole-4,7-dione after 60 mins by reversed phase TLC analysis; assay type: ADME, cell-based; settings: ht-29, 1 h
A549 [3] = test: Drug level in human A549 cells treated with 18.5 kBq [125I]-3-([4-Iodophenoxy]methyl)-5-methoxy-1,2-dimethyl-1Hindole-4,7-dione after 60 mins by reversed phase TLC analysis; assay type: ADME, cell-based; settings: a549, 1 h
[4] = Stability of the compound in PBS assessed as compound remaining at 74 KBq at pH 7.4 after 24 hrs by reversed phase TLC analysis; assay type: physicochemical; settings: read-out: Stability
[5] = Stability in mouse plasma assessed as compound remaining at 74 KBq after 24 hrs by reversed phase TLC analysis; assay type: ADME, cell-free; settings: read-out: Stability
HT-29 [6] = test: Cellular uptake in human HT-29 cells at 18.5 kBq up to 5 mins by gamma-counting analysis; assay type: ADME, cell-based; settings: ht-29, 5 min
HT-29 [7] = test: Cellular uptake in human HT-29 cells at 18.5 kBq after 2 hrs by gamma-counting analysis; assay type: ADME, cell-based; settings: ht-29, 2 h
[8] = Drug metabolism in human HT-29 cells assessed as compound remaining at 18.5 kBq after 60 mins by reversed phase TLC analysis; assay type: ADME, cell-based; settings: read-out: Stability
HT-29 [9] = test: Drug metabolism in human HT-29 cells assessed as p-[125I]-iodophenol formation at 18.5 kBq after 60 mins by reversed phase TLC analysis; assay type: ADME, cell-based; settings: ht-29, 1 h
HT-29 [10] = test: Drug metabolism in human HT-29 cells assessed as m-[125I]-iodophenol formation at 18.5 kBq after 60 mins by reversed phase TLC analysis; assay type: ADME, cell-based; settings: ht-29, 1 h
HT-29 [11] = test: Drug metabolism in human HT-29 cells assessed as [125I]-I formation at 18.5 kBq after 60 mins by reversed phase TLC analysis; assay type: ADME, cell-based; settings: ht-29, 1 h
[12] = Stability of the compound in cell culture media; assay type: physicochemical
[13] = target: NAD(P)H dehydrogenase [quinone] 1 (printed NOQ-1) (Homo sapiens, UniProt P15559); test: Activity of NOQ-1 expressed in human HT-29 cell lysate assessed as compound remaining at 185 KBq after 2 hrs by reversed phase TLC analysis; assay type: ADME, cell-free; settings: read-out: Stability
A549 [14] = test: Cellular uptake in human A549 cells at 18.5 kBq by gamma-counting analysis; assay type: ADME, cell-based
[15] = Ratio of cellular uptake in human A549 cells to cellular uptake in human HT-29 cells; assay type: ADME, cell-based
[16] = Drug metabolism in human A549 cells assessed as compound remaining at 18.5 kBq after 60 mins by reversed phase TLC analysis; assay type: ADME, cell-based; settings: read-out: Stability
A549 [17] = test: Cellular uptake in human A549 cells at 18.5 kBq after 30 mins by gamma-counting analysis in presence of 3-([{4-Iodophenyl}thio]methyl)-5-methoxy-1,2-dimethyl-1H-indole-4,7-dione; assay type: ADME, cell-based; settings: a549, 0.5 h
HT-29 [18] = test: Cellular uptake in human HT-29 cells at 18.5 kBq after 30 mins by gamma-counting analysis in presence of 3-([{4-Iodophenyl}thio]methyl)-5-methoxy-1,2-dimethyl-1H-indole-4,7-dione; assay type: ADME, cell-based; settings: ht-29, 0.5 h
[19] = target: NAD(P)H dehydrogenase [quinone] 1 (Homo sapiens, UniProt P15559); test: Activity of NOQ-1 expressed in human HT-29 cell lysate assessed as p-[125I]-iodophenol formation at 185 KBq after 2 hrs by reversed phase TLC analysis; assay type: ADME, cell-free; settings: ht-29, 2 h
A549 [20] = test: Cellular uptake in human A549 cells at 18.5 kBq after 1 to 120 mins by gamma-counting analysis; assay type: ADME, cell-based
A549 [21] = test: Drug metabolism in human A549 cells assessed as p-[125I]-iodophenol formation at 18.5 kBq after 60 mins by reversed phase TLC analysis; assay type: ADME, cell-based; settings: a549, 1 h
A549 [22] = test: Drug metabolism in human A549 cells assessed as [125I]-I formation at 18.5 kBq after 60 mins by reversed phase TLC analysis; assay type: ADME, cell-based; settings: a549, 1 h

Sequence of NAD(P)H dehydrogenase [quinone] 1 (printed NOQ-1) (P15559 whole entry): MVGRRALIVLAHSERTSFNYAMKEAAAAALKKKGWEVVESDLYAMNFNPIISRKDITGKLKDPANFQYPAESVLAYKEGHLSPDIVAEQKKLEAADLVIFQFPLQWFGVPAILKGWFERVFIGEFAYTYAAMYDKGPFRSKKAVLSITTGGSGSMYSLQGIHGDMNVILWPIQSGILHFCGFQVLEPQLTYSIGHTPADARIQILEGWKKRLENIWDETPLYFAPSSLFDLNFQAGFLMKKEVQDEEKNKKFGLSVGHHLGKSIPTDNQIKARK
Sequence of NAD(P)H dehydrogenase [quinone] 1 (P15559 whole entry): as above

| Compound | Drug uptake (HT-29 [1]) | Drug uptake (HT-29 [2]) | remaining at 24 h, 74 KBq [4] | remaining at 24 h, 74 KBq [5] | Drug uptake (HT-29 [6]) | Drug uptake (HT-29 [7]) | remaining at 1 h, 18.5 kBq [8] | Drug metabolism (HT-29 [9]) | Drug metabolism (HT-29 [10]) | Drug metabolism (HT-29 [11]) | Stability [12] | remaining at 2 h, 185 KBq [13] | Drug uptake (A549 [3]) | also measured |
| --- | --- | --- | --- | --- | --- | --- | --- | --- | --- | --- | --- | --- | --- | --- |
| Oc1ccc([125I])cc1 | Active | Active | – | – | – | – | – | – | – | – | – | – | Active | – |
| COC1=CC(=O)c2c(c(COc3cccc([125I])c3)c(C)n2C)C1=O | – | – | > 90% | 80% | Active | Active | < 10% | metabolite_detected | metabolite_detected | metabolite_detected | Stable | – | – | – |
| COC1=CC(=O)c2c(c(CSc3ccc([125I])cc3)c(C)n2C)C1=O | – | – | > 90% | > 97% | – | Active | – | – | – | – | Stable | 92% | – | Drug uptake (A549 [14]): Dose-dependent effect; Ratio [15]: 4; remaining at 1 h, 18.5 kBq [16]: > 85%; Drug uptake (A549 [17]): Not Active; Drug uptake (HT-29 [18]): Not Active |
| Oc1cccc([125I])c1 | Active | Active | – | – | – | – | – | – | – | – | – | – | – | – |

Continued, in another order:

| Drug uptake (HT-29 [1]) | Drug uptake (HT-29 [2]) | remaining at 24 h, 74 KBq [4] | remaining at 24 h, 74 KBq [5] | Drug uptake (HT-29 [6]) | Drug uptake (HT-29 [7]) | remaining at 1 h, 18.5 kBq [8] | Drug metabolism (HT-29 [9]) | Drug metabolism (HT-29 [10]) | Drug metabolism (HT-29 [11]) | Stability [12] | remaining at 2 h, 185 KBq [13] | Compound | Drug uptake (A549 [3]) | also measured |
| --- | --- | --- | --- | --- | --- | --- | --- | --- | --- | --- | --- | --- | --- | --- |
| Active | Active | – | – | – | – | – | – | – | – | – | – | [125IH] | Active | – |
| – | – | > 90% | 80% | Active | Active | < 10% | metabolite_detected | metabolite_detected | metabolite_detected | Stable | < 25% | COC1=CC(=O)c2c(c(COc3ccc([125I])cc3)c(C)n2C)C1=O | – | Drug metabolism [19]: metabolite_detected; Drug uptake (A549 [20]): Active; Drug metabolism (A549 [21]): metabolite_detected; Drug metabolism (A549 [22]): metabolite_detected |
